Values joined by “and” are separate entries in the source; they are usually repeats but may differ in a detail not shown here. Identical values can stand only once.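 Grown in 96-well plates, cells were treated for 48 hours with each compound at five concentrations. Insufficient inhibition: endpoint recorded as highest concentration tested. GI50: concentration for 50% inhibition of growth. Definition used: TGI = concentration required for complete inhibition of growth.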
Assays:
Experiment in all cases: NCI-60 cell line screen, 48 h
CAKI-1 renal = tested on: CAKI-1 renal
HS 578T breast = tested on: HS 578T breast
K-562 leukemia = tested on: K-562 leukemia
MALME-3M melanoma = tested on: MALME-3M melanoma
MDA-MB-231 breast = tested on: MDA-MB-231 breast
MDA-MB-435 = tested on: MDA-MB-435
OVCAR-5 ovarian = tested on: OVCAR-5 ovarian
SF-539 CNS = tested on: SF-539 CNS
SR leukemia = tested on: SR leukemia
UACC-257 melanoma = tested on: UACC-257 melanoma

SMILES	GI50 (CAKI-1 renal) [µM]	TGI (CAKI-1 renal)	GI50 (HS 578T breast) [µM]	TGI (HS 578T breast) [µM]	GI50 (K-562 leukemia) [µM]	TGI (K-562 leukemia)	GI50 (MALME-3M melanoma) [µM]	TGI (MALME-3M melanoma) [µM]	GI50 (MDA-MB-231 breast) [µM]	TGI (MDA-MB-231 breast)	GI50 (MDA-MB-435) [µM]	TGI (MDA-MB-435) [µM]	GI50 (OVCAR-5 ovarian) [µM]	TGI (OVCAR-5 ovarian)	GI50 (SF-539 CNS) [µM]	TGI (SF-539 CNS)	GI50 (SR leukemia) [µM]	TGI (SR leukemia)	GI50 (UACC-257 melanoma) [µM]	TGI (UACC-257 melanoma)
COc1cccc(C2CC(c3cc(OC)c(OC)c(OC)c3)=NN2)c1 (configuration not stated)	14.7	50.5 µM	15.5	49.4	4.19	> 100 µM	23.4	> 100	26.2	> 100 µM	2.79	9.39	18.4	66.1 µM	5.33	21.1 µM	3.09	14.1 µM	12.7	36.4 µM
O=C(O)CSCc1cccc2ccccc12		> 100 µM		> 100		> 100 µM		> 100		> 100 µM		> 100		> 100 µM		> 100 µM		> 100 µM		> 100 µM
Cc1ccc(C(=O)N(CCCN)[C@@H](c2nc3cc(Cl)ccc3c(=O)n2Cc2ccccc2)C(C)C)cc1		2.33 µM and 1.94 µM	< 0.01		< 0.01	1.67 µM and 1.23 µM	0.0303	2.39	< 0.01	0.233 µM and 0.172 µM	< 0.01	< 0.01	< 0.01	2.02 µM and 1.74 µM	< 0.01	1.38 µM and 0.654 µM	< 0.01	1.63 µM and 1.44 µM		1.86 µM and 2.79 µM
O=[As](O)(O)c1ccc(NCc2ccccc2)cc1		> 100 µM		> 100		> 100 µM		> 100		> 100 µM		> 100		> 100 µM				> 100 µM		> 100 µM
CCCN(CCC)CCCNCc1cc(I)cc(C)c1O	14.6	30.6 µM	11.1	24.6	6.12	19.4 µM	16.5	31.5	14.5	28.5 µM	12	24.8	18.5	43.7 µM	14.7	27.9 µM	7.18	21.2 µM	11.5	27.7 µM
Cc1nc2ccc(CN(C)c3ccc(C(=O)N[C@@H](CCC(=O)O)C(=O)O)s3)cc2c(=O)[nH]1		> 100 µM		> 100		> 100 µM		> 100		> 100 µM		> 100		> 100 µM				> 100 µM		> 100 µM
Cc1nc2sccn2c1/C=C1/C(=O)Nc2ccccc21	2.98	> 100 µM	19.4	> 78.1	> 100	> 100 µM	5.37	> 100	4.53	> 82.5 µM	0.582	11	38.3	> 100 µM	3.14	17.8 µM	1.26	5.44 µM	> 100	> 100 µM
C=C1C(=O)O[C@H]2[C@H]1CC/C(CNC(=O)/C=C/c1ccc(Br)cc1)=C\CC[C@@]1(C)O[C@@H]21	1.12	2.34 µM	1.44	4.43	0.438	> 33.4 µM	1.33	2.78	1.41	2.94 µM	0.632	2.07	1.7	3.75 µM	0.873	2.28 µM	0.255		1.43	2.97 µM
COc1cc(/C(Cl)=C/C=C/C(=O)c2c(C)[n+]([O-])c3ccc(Cl)cc3[n+]2[O-])cc(OC)c1OC	1.66	10.6 µM	6.47	35.7	1.43	6.24 µM	6.35	18.5	6.94	17.8 µM	0.673	1.74	13	33.2 µM	3.67	> 50 µM	1.47	4.72 µM	16.6	> 50 µM
CC(=O)C1=C(O)C=C2Oc3c(C(=O)/C=C/c4cc(C(F)(F)F)cc(C(F)(F)F)c4)c(O)c(C)c(O)c3[C@]2(C)C1=O	0.531	4.83 µM	0.861	5.4	0.498	15 µM	0.513	2.42	0.525	1.84 µM	0.587	2.35	0.757	4.46 µM	1.4	4.53 µM	0.44	3.32 µM	0.728	4.54 µM
COC(=O)[C@@H](NC(=O)NC(=O)NC(=O)CI)C(C)C	1.41	2.73 µM	26.4	74.6			1.63	3.64	17	34.9 µM	9.97	21.7	13.2	29.7 µM	3.92	14.8 µM	1.76	5.64 µM	13.6	27.8 µM
